According to patent US6894052B1, “Diarylalkylpiperazines active on the lower urinary tract” (Recordati S.A. Chemical and Pharmaceutical Company, priority 1997, dated 2005):
Where two headings read alike, the source gives them in different places.

Assays:
[1] = system: rhythmic bladder voiding contractions; experiment: Volume-induced rhythmic bladder voiding contractions in anaesthetized rats; assay type: in vivo, rat; details: intravenous administration, anaesthetized rats; for ED50: Rattus norvegicus, extrapolated dose inducing a reduction of the number of contractions >30% in 50% of treated rats, read-out: ED50 (frequency); for ED10min: extrapolated dose inducing 10 min of disappearance of the contractions
Protocol: Female Sprague Dawley rats weighing 225-275 g (Crl: CDo BR, Charles River Italia) were used. The animals were housed with free access to food and water and were maintained on a forced 12 h alternating light-dark cycle at 22-24° C. for at least one week, except during the experiment. The activity on the rhythmic bladder voiding contractions was evaluated according to the method of Dray (J. Pharmacol. Methods, 13:157, 1985), with some modifications as in Guarneri (Pharmacol. Res., 27:173, 1993). Briefly, rats were anesthetized by subcutaneous injection of 1.25 g/kg (5 ml/kg) urethane, after which the urinary bladder was catheterized via the urethra using PE 50 polyethylene tubing filled with physiological saline. The catheter was tied in place with a ligature around the external urethral orifice and was connected with conventional pressure transducers (Statham P23 ID/P23 XL). […] The bladder was then filled via the recording catheter by incremental volumes of warm (37° C.) saline until reflex bladder voiding contractions occurred (usually 0.8-1.5 ml). For intravenous (i.v.) injection of bioactive compounds, PE 50 polyethylene tubing filled with physiological saline was inserted into the jugular vein.
From the cystometrogram, the number of contractions recorded 15 min before (basal values) and after treatment, as well as the mean amplitude of these contractions (mean height of the peaks in mm Hg) was evaluated.
Since most compounds produced an effect that was relatively rapid in onset and led to a complete cessation of bladder contractions, bioactivity was conveniently estimated by measuring the duration of bladder quiescence (i.e., the duration of time during which no contractions occurred). Moreover, the number of animals tested showing a reduction in the number of contractions >30% of that observed in the basal period, was recorded. […] Also computed in this manner were extrapolated doses which induced a reduction of the number of contractions of greater than 30% in 50% of treated rats (ED50, frequency) by the method of Bliss (Bliss C. I., Quart. J. Pharm. Pharmacol. 11, 192-216, 1938). After the suppressive effects of drug injection wore off, the height of the contractile peaks was compared with the height of the peaks previously recorded after the control intravenous administration of vehicle. The potency of the tested compounds (ED50 value, the extrapolated doses inducing a 30% reduction of amplitude of the contractions in 50% of treated rats) was evaluated on a quantal basis by the method of Bliss (Bliss C. I., Quart. J. Pharm. Pharmacol. 11, 192-216, 1938).

[2] = target: T1, human 5-HT1A serotonergic receptor (Homo sapiens, UniProt P08908); experiment: Radioreceptor binding to recombinant human 5-HT1A receptors ([3H]8-OH-DPAT, HeLa cell membranes)
T1 construct: expressed in transfected cells; host or cells: HeLa (human), stably transfected; cell membranes
T1 sequence (P08908 1-422): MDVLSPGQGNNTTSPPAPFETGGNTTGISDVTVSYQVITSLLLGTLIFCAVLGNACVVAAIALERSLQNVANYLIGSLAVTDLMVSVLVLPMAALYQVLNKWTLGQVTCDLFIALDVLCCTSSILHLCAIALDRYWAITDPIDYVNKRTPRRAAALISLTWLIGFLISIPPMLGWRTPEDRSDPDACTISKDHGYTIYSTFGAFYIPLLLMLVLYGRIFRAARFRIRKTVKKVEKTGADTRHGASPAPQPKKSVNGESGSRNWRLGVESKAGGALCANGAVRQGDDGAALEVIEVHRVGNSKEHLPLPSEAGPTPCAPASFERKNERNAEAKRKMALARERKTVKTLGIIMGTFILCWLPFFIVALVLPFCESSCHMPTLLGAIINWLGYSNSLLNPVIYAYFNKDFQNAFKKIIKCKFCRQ
Protocol: Genomic clone G-21 coding for the human 5-HT1A serotonergic receptor is stably transfected in a human cell line (HeLa). HeLa cells were grown as monolayers in Dulbecco's modified Eagle's medium (DMEM), supplemented with 10% fetal calf serum and gentamicin ([…]), 5% CO2 at 37° C. Cells were detached from the growth flask at 95% confluence by a cell scraper and were lysed in ice-cold 5 mM Tris and 5 mM EDTA buffer (pH 7.4). Homogenates were centrifuged at 40000×g×20 min and pellets were resuspended in a small volume of ice-cold 5 mM Tris and 5 mM EDTA buffer (pH 7.4) and immediately frozen and stored at −70° C. until use. On the day of experiment, cell membranes were resuspended in binding buffer: 50 mM Tris HCl (pH 7.4), 2.5 mM MgCl2, 10 μM pargyline (Fargin et al., Nature 335, 358-360, 1988). Membranes were incubated in a final volume of 1 ml for 30 min at 30° C. with 0.2-1 nM [^3H]8-OH-DPAT, in absence or presence of competing drugs; non-specific binding was determined in the presence of 10 μM 5-HT. The incubation was stopped by addition of ice-cold Tris-HCl buffer and rapid filtration through 0.2% polyethyleneimine-pretreated Whatman GF/B or Schleieher & Schuell GF52 filters.
(§1) The inhibition of specific binding of the radioligands by the tested drugs was analyzed to estimate the IC50 value by using the non-linear curve-fitting program Allfit (De Lean et al., Am. J. Physiol. 235, E97-E102, 1978). The IC50 value is converted to an affinity constant (Ki) by the equation of Cheng & Prusoff (Cheng, Y. C.; Prusoff, W. H. Biochem. Pharmacol. 22, 3099-3108, 1973).

[3] = target: T2, 5-HT2A serotonergic receptors (Rattus norvegicus, UniProt P14842); experiment: Radioreceptor binding to native 5-HT2A serotonergic receptors ([3H]ketanserin, rat cerebral cortex membranes); details: rat cerebral cortex membranes, [3H]ketanserin; read-out: Ki 5-HT2A
T2 construct: from tissue; host or cells: cerebral cortex of male Sprague Dawley rats, membranes
Protocol: Binding studies on native 5-HT2A serotonergic receptors (Craig A. and Kenneth J., Life Sci. 38, 117-127, 1986) were carried out in membranes of rat cerebral cortex. Male Sprague Dawley rats (200-300 g, S D Harlan/Nossan, Italy) were killed by cervical dislocation and cerebral cortexes were excised and immediately frozen in liquid nitrogen and stored at −70° C. until use. Tissues were homogenized (2×20 sec) in 50 volumes of cold 50 mM Tris-HCl buffer pH 7.4, using a Polytron homogenizer (speed 7). Homogenates were centrifuged at 49000×g for 10 min, resuspended in 50 volumes of the same buffer, incubated at 37° C. for 15 min and centrifuged and resuspended twice more. The final pellets were suspended in 100 volumes of 50 mM Tris-HCl buffer pH 7.7. Membranes were incubated in a final volume of 1 ml for 20 min at 37° C. with 0.7-1.3 nM [^3H]ketanserin (5-HT2A receptors), in absence or presence of competing drugs. Non-specific binding was determined in the presence of 2 μM ketanserin. The incubation was stopped by addition of ice-cold 50 mM Tris-HCl buffer and rapid filtration through 0.2% polyethyleneimine pretreated Whatman GF/B or Schleicher & Schuell GF52 filters. The filters are then washed with ice-cold buffer and the radioactivity retained on the filters was counted by liquid scintillation spectrometry.
as §1

α1 adrenergic receptors = experiment: Radioreceptor binding to native α1 adrenergic receptors ([3H]prazosin, rat cerebral cortex membranes)
Protocol: Binding studies on native α1 adrenergic receptors were carried out in membranes of rat cerebral cortex. Male Sprague Dawley rats (200-300 g, Charles River, Italy) were killed by cervical dislocation and cerebral cortexes were dissected and immediately frozen and stored at −70° C. until use. Tissue was homogenized (2×20 sec) in 50 volumes of cold 50 mM Tris-HCl buffer pH 7.4, using a Polytron homogenizer (speed 7). Homogenates were centrifuged at 48000×g for 10 min, resuspended in 50 volumes of the same buffer, incubated at 37° C. for 15 min and centrifuged and resuspended twice more. The final pellets were suspended in 100 volumes of 50 mM Tris-HCl buffer pH 7.4, containing 10 μM pargyline and 0.1% ascorbic acid. Membranes were incubated in a final volume of 1 ml for 30 min at 25° C. with 0.1-0.5 nM [^3H]prazosin, in the absence or presence of competing drugs; non-specific binding was determined in the presence of 10 μM phentolamine.
The incubation was stopped by addition of ice-cold 50 mM Tris-HCl buffer and rapid filtration through 0.2% polyethyleneimine-pretreated Whatman GF/B or Schleicher & Schuell GF52 filters. The filters were then washed with ice-cold buffer and the radioactivity retained on the filters counted by liquid scintillation spectrometry.
as §1

T2 sequence (P14842 whole entry): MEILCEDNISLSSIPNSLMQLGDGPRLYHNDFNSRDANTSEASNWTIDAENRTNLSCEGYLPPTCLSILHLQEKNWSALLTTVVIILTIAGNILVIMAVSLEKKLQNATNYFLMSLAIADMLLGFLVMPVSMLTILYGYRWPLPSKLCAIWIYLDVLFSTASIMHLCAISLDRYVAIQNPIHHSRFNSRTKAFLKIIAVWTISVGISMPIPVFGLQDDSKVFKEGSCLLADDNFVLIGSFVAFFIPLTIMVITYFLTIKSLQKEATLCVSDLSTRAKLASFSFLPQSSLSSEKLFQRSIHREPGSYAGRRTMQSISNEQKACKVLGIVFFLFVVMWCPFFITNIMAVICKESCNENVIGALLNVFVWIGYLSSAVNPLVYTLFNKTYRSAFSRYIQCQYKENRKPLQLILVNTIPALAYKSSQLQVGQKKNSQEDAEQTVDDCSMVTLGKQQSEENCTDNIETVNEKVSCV

Row | SMILES | ED50 [1] | ED10min [1] | Ki [2] | Ki [3] | Ki (α1 adrenergic receptors) | Ki ([2]; recombinant human receptor in HeLa membranes, [3H]8-OH-DPAT, read-out: Ki 5-HT1A)
1 | COc1ccccc1N1CCN(CCC(C(N)=O)(c2ccccc2)c2ccccn2)CC1 (stereo not shown) [Ex. 10, 1-[3-aminocarbonyl-3-phenyl-3-(2-pyridyl)propyl]-4-(2-methoxyphenyl)piperazine] | 0.18 mg/kg | 0.228 mg/kg | 19.3 nM | 683 nM | 1320 nM | –
2 | COc1ccccc1N1CCN(CCC(O)(c2ccccn2)c2ccccn2)CC1 [Ex. 14, 1-[3-hydroxy-3,3-bis-(2-pyridyl)propyl]-4-(2-methoxyphenyl)piperazine] | 0.036 mg/kg | 0.127 mg/kg | – | > 1000 nM | 114 nM | 0.34 nM
